No end group written: not given here.
System: LPS-induced acute shock in C57BL/6 mice
Assay: LPS-induced acute shock, survival
Format: in vivo, mouse
Settings: for survival rate: within 96 h, LPS + vehicle all died within 30 h, n = 8
From the text: The H. cyanocinctus specimens were captured during September 2005 in the South China Sea near Guangdong Province, People’s Republic of China. After collection, the snakes were killed, and the venom glands were isolated and immediately frozen in liquid nitrogen until use. HEK-293 human embryonic kidney and L929 mouse fibroblast cell lines were obtained from ATCC and cultured in Dulbecco’s modified Eagle’s medium (DMEM, Sigma-Aldrich, St. Louis, MO, USA) containing 10% (v/v) heat-inactivated fetal bovine serum (FBS, Gibco, BRL, Grand Island, NY, USA) at 37 °C in an atmosphere of 5% CO2. The BLT5403 E. coli strain (used as the phage host strain) was from Novagen (Merck) and was cultured at 37 °C for propagation. The specific pathogen-free (SPF) male BALB/c and C57BL/6 mice (both 6–8 weeks old), weighing 20 ± 2 g were purchased from Shanghai SLAC Laboratory Animal Co., Ltd. (Shanghai, China). The mice were housed in animal facilities with 50% humidity under a 12-h light-dark cycle, fed a standard pellet diet, and provided with tap water ad libitum. The animal experimental protocols in this research, including venom gland isolation and the mouse study, were approved by the Animal Care and Use Committee of the Second Military Medical University.
The LPS-induced acute shock model was established in male C57BL/6 mice (6–8 weeks old) that were randomly allocated to five groups. LPS was administered (15 mg/kg body weight) to induce acute shock. The LPS- or normal saline-treated mice were injected with 100 μL of normal saline with or without LPS intraperitoneally, while the H-TL1 and LPS-treated mice were each administered H-TL1 at three doses of 20, 40, and 80 μg/kg 1, 3, and 5 h after the LPS injection (Figure 5A). The mice were observed every 4 h to evaluate mortality.

ATSKPSLKC-OH [H-TL1]
survival rate (H-TL1 40 μg/kg at 1, 3, and 5 h after LPS 15 mg/kg i.p., * p < 0.05): 37.5% | survival rate (H-TL1 80 μg/kg at 1, 3, and 5 h after LPS 15 mg/kg i.p., *** p < 0.001): 62.5% | protection from LPS-induced acute shock, dose dependence (H-TL1 20, 40, and 80 μg/kg, LPS 15 mg/kg i.p.): protected the mice from LPS-induced acute shock in a dose-dependent manner
